Tests used:
[1] = test system: PSMA+ PC3 PIP cells; assay: Clonogenic survival assay; assay type: cell-based, human; conditions: 48 h treatment at 37 °C
Procedure: Cells (200–1000) were seeded in 60 mm culture dishes. Each radioligand (^177Lu-L1, ^177Lu-Alb-L2, ^177Lu-Alb-L5) was diluted in a prewarmed medium at different concentrations (0, 0.37, 1.85, 3.7, 18.5, 37, 185, and 370 kBq/mL) and incubated with the cells for 48 h, as we previously reported. The radiolabeled compound was replaced with fresh medium, and cells were incubated for 2 weeks or until colonies had at least 50 cells. The colonies were stained with crystal violet and counted, and the surviving fraction was normalized to the control plating efficiency, as previously described.

[2] = test system: patients with metastatic castration-resistant prostate cancer; design: method as in PMID 34161051, PMID 34385339; conditions: treatment group of randomized patients; cited from earlier work
[3] = test system: patients; design: method as in PMID 32949253; conditions: than 177Lu-EB-PSMA-617 and 177Lu-PSMA-ALB-56; clinical studies; cited from earlier work

| Compound | Activity to reduce cell survival to 37% (A0) [1] | Concentration of radioactivity for complete cell killing [1] | Median overall survival [2] | Kidney-absorbed dose, fold lower [3] |
| --- | --- | --- | --- | --- |
| O=C(O)CCC(NC(=O)NC(CCCCN(Cc1ccc(Br)cc1)C(=O)CCCCNC(=O)CN1CCN(CC(=O)O)CCN(CC(=O)O)CCN(CC(=O)O)CC1)C(=O)O)C(=O)O (stereo not shown) [177Lu-L1, metal not drawn] | 18.5 kBq/mL | 370 kBq/mL | – | – |
| O=C([O-])CN1CCN(CC(=O)[O-])CCN(CC(=O)NCC2CCC(C(=O)N[C@@H](Cc3ccc4ccccc4c3)C(=O)NCCCC[C@H](NC(=O)N[C@@H](CCC(=O)O)C(=O)O)C(=O)O)CC2)CCN(CC(=O)[O-])CC1.[177Lu+3] (stereo partly shown) [177Lu-PSMA-617] | – | – | 15.3 months | ~ 4 fold |
